Values quoted from earlier work as cited in patent US20140228389A1, “DRY POWDER COMPOUND FORMULATIONS AND USES THEREOF” (Wyeth, LLC, priority 2006, published 2014).

Assays:
opioid receptors = details: found in U.S. Ser. No. 11/441,395 and 11/441,452
[1] = white crystalline powder from Mallinckrodt Pharmaceuticals

SMILES	opioid activity (agonist or antagonist) (opioid receptors)	solubility in water [1]
C[N+]1(CC2CC2)CCC23c4c5ccc(O)c4OC2C(=O)CCC3(O)C1C5 (single isomer, unassigned) [R—N isomer of methylnaltrexone]	opioid antagonist	
C[N+]1(CC2CC2)CC[C@]23c4c5ccc(O)c4O[C@H]2C(=O)CC[C@@]3(O)[C@H]1C5.[Br-] (stereo partly drawn) [Methylnaltrexone, Methylnaltrexone bromide]		freely soluble in water
C[N+]1(CC2CC2)CC[C@]23c4c5ccc(O)c4O[C@H]2C(=O)CC[C@@]3(O)[C@H]1C5.[Br-] (stereo partly drawn) [S—N isomer of methylnaltrexone, S-Methylnaltrexone bromide]	opioid agonist	
